From patent US10189836B2, “Therapeutic compounds, compositions and methods of use thereof” (Genentech, Inc., priority 2015, dated 2019)

Legend:
[1] = molecular target: isolated recombinant JAK1 kinase domain (Homo sapiens (Human), UniProt P23458); experiment: JAK1 enzyme assay (Caliper LabChip, Ki); type: biochemical; conditions: isolated recombinant JAK1 kinase domain, 1.5 nM enzyme, ATP 25 μM
[2] = molecular target: isolated recombinant JAK2 kinase domain (Homo sapiens (Human), UniProt O60674); experiment: JAK2 enzyme assay (Caliper LabChip, Ki); type: biochemical; conditions: isolated recombinant JAK2 kinase domain, 0.2 nM enzyme, ATP 25 μM
Sequence of isolated recombinant JAK2 kinase domain (O60674 849-1124): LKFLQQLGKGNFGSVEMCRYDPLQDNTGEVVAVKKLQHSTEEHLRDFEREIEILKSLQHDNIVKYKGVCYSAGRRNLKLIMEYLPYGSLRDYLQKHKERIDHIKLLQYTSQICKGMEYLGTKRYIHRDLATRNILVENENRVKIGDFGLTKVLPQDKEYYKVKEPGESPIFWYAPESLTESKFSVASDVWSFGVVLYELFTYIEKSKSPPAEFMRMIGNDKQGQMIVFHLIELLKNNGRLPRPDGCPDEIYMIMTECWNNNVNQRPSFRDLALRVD

Sequence of isolated recombinant JAK1 kinase domain (P23458 875-1153): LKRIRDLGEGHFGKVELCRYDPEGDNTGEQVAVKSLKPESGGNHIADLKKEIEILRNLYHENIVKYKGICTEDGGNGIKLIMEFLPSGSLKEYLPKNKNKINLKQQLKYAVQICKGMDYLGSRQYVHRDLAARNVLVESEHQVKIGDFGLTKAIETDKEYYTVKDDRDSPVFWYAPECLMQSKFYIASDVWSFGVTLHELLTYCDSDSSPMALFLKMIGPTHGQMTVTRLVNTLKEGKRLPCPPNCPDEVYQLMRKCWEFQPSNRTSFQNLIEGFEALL

Compound | Ki [1] | Ki [2]
CN1CCN(C(=O)Cn2cc(Nc3nc4c(N5CC6CCC(C5)N6S(=O)(=O)c5ccc(F)cc5)cccn4n3)cn2)CC1 [Example 134, 2-[4-[[8-[8-(4-fluorophenyl)sulfonyl-3,8-diazabicyclo[3.2.1]octan-3-yl]-[1,2,4]triazolo[1,5-a]pyridin-2-yl]amino]pyrazol-1-yl]-1-(4-methylpiperazin-1-yl)ethanone] | 0.4 nM | 0.5 nM
CN(C)C(=O)CN1CCN(CC2CCN(C(=O)Cn3cc(Nc4nc5c(N6CC7CCC(C6)N7C(=O)CCC(F)(F)F)cccn5n4)cn3)CC2)CC1 [Example 75, N,N-dimethyl-2-[4-[[1-[2-[4-[[8-[8-(4,4,4-trifluorobutanoyl)-3,8-diazabicyclo[3.2.1]octan-3-yl]-[1,2,4]triazolo[1,5-a]pyridin-2-yl]amino]pyrazol-1-yl]acetyl]-4-piperidyl]methyl]piperazin-1-yl]acetamide] | 1.4 nM | 3.9 nM
CN1CCN(C(=O)Cn2cc(Nc3nc4c(N5CC6CCC(C5)N6Cc5ccc(C#N)cc5)cccn4n3)cn2)CC1 [Example 56, 4-[[3-[2-[[1-[2-(4-methylpiperazin-1-yl)-2-oxo-ethyl]pyrazol-4-yl]amino]-[1,2,4]triazolo[1,5-a]pyridin-8-yl]-3,8-diazabicyclo[3.2.1]octan-8-yl]methyl]benzonitrile] | 1.4 nM | 5.1 nM
CN1CCN(C(=O)Cn2cc(Nc3nc4c(N5CC6CCC(C5)N6C(=O)N5CCC(C#N)CC5)cccn4n3)cn2)CC1 [Example 182, 1-[3-[2-[[1-[2-(4-methylpiperazin-1-yl)-2-oxo-ethyl]pyrazol-4-yl]amino]-[1,2,4]triazolo[1,5-a]pyridin-8-yl]-3,8-diazabicyclo[3.2.1]octane-8-carbonyl]piperidine-4-carbonitrile] | 0.6 nM | 0.9 nM
CN1CCN(C(=O)Cn2cc(Nc3nc4c(N5CC6CCC(C5)N6S(=O)(=O)c5ccccc5C(F)(F)F)cccn4n3)cn2)CC1 [Example 148, 1-(4-methylpiperazin-1-yl)-2-[4-[[8-[8-(2-(trifluoromethyl)phenyl]sulfonyl-3,8-diazabicyclo[3.2.1]octan-3-yl]-[1,2,4]triazolo[1,5-a]pyridin-2-yl]amino]pyrazol-1-yl]ethanone] | 1.9 nM | 3.1 nM
CSC1CCN(C(=O)N2C3CCC2CN(c2cccn4nc(Nc5cnn(CC(=O)N6CCN(C)CC6)c5)nc24)C3)CC1 [Example 180, 1-(4-methylpiperazin-1-yl)-2-[4-[[8-[8-(4-methylsulfanylpiperidine-1-carbonyl)-3,8-diazabicyclo[3.2.1]octan-3-yl]-[1,2,4]triazolo[1,5-a]pyridin-2-yl]amino]pyrazol-1-yl]ethanone] | 1.3 nM | 2.6 nM
COC(=O)C1C2CCC1CN(c1cccn3nc(Nc4cnn(CC(=O)N5CCN(C)CC5)c4)nc13)C2 (centres unmarked) [Example 80, methyl 3-[2-[[1-[2-(4-methylpiperazin-1-yl)-2-oxo-ethyl]pyrazol-4-yl]amino]-[1,2,4]triazolo[1,5-a]pyridin-8-yl]-3-azabicyclo[3.2.1]octane-8-carboxylate] | 1.5 nM | 3.1 nM
